# Reference: patent publication US20230060715A1, “USE OF FXR AGONISTS FOR TREATING AN INFECTION BY HEPATITIS D VIRUS” (INSERM (INSTITUT NATIONAL DE LA SANTÉ ET DE LA RECHERCHE …, priority 2020, published 2023)
# Read-outs that look alike come from different tables or passages of the source.
# Assays:
# HDV [1] = assay: HDV replication in HDV monoinfected dHepaRG cells (total HDV RNA, RT-qPCR); type: cell-based, Hepatitis D virus; settings: day 4 to 11 post-infection
# Protocol: FIG. 6. FXRα agonists inhibit HDV replication in monoinfected dHepaRG cells.
# Total RNA was prepared using NucleoSpin RNA Plus (Macherey-Nagel). After DNA digestion with TURBO DNase (Ambion), maximum 1000 ng RNA were reverse-transcribed using High-Capacity RNA-to-cDNA kit (Thermo Fisher Scientific). […] . All assays were performed in triplicate.
# HDV genomic RNA = HDV genomic RNA in HDV monoinfected dHepaRG cells (Northern Blot); settings: day 4 to 11 post-infection
# Protocol: Differentiated HepaRG cells were infected with HDV at a MOI of 25 GE/cell. From day 4 to day 11 post-infection, cells were treated with 1 or 10 μM of GW4064, 10 μM of 6-ECDCA and 1 μM of tropifexor. At day 11 post HDV infection, cells were collected and HDV genomic RNA was analyzed by Northern Blot.
# To determine if FXRα-mediated inhibition of HDV was independent of HBV, the inventors analyzed the impact of FXRα agonists in HDV mono-infected dHepaRG cells.
# Total RNA was extracted from infected cells using Tri Reagent® (TR118, Molecular Research Center). […] After electrotransfer to charged nylon membranes (Roche), genomic HDV RNA sequences were detected by using a strand-specific RNA probe synthesized using the Dig RNA Labeling kit (Sp6/T7) (Roche) and DIG luminescent detection kit (Roche) accordinng to the manufacturer's instruction. Quantification of signals were done with ImageLab.
# As an internal control for the amount and quality of the extracted RNA, the membrane was stripped and rehybridized by using labeled oligonucleotides specific for human 18S rRNA and 28S rRNA.
# HDV [2] = assay: HDV replication in HBV/HDV coinfected dHepaRG cells (intracellular HDV RNA, RT-qPCR); type: cell-based, Hepatitis D virus; settings: 10 μM, treated day 3 to 13 post-infection
# Protocol: The HepaRG cell line derived from a human cellular hepato carcinoma can differentiate and regain many phenotypic traits of hepatocytes after 4 weeks of culture under defined conditions^1. HepaRG cells were cultured, differentiated, and infected by HBV and HDV as previously described^2,3.
# Total RNA was prepared using NucleoSpin RNA Plus (Macherey-Nagel). After DNA digestion with TURBO DNase (Ambion), maximum 1000 ng RNA were reverse-transcribed using High-Capacity RNA-to-cDNA kit (Thermo Fisher Scientific). […] All assays were performed in triplicate.
# HBV = assay: Anti-HBV activity in HBV/HDV coinfected dHepaRG cells (intracellular HBV RNAs, secreted HBs and HBe antigens); type: cell-based, Hepatitis B virus; settings: 10 μM, day 13
# Excerpt: FIG. 1. FXRα agonist inhibits HDV replication in HBV-HDV coinfected dHepaRG cells. […] Cells and supernatants were harvested at day 13 for intracellular HBV and HDV RNA and secreted antigens quantification. Results are the mean+/−SD of two experiments performed with three biological replicates.
# The inventors first evaluated the impact of FXRα agonists on HDV replication in in vitro coinfected dHepaRG cells. Cells were simultaneously infected with HBV and HDV. […] At day 13 post-infection, cells and supernatants were collected. The intracellular amounts of HDV and HBV RNAs were quantified as well as secreted HBe and HBs antigens.
# HBV stocks (genotype D, Genbank ID U95551) were prepared using the HepAD38 cell line according to previously described protocols^7.
# HBs and HBe antigens secreted in cells supernatant were quantified, after required dilutions, on Mini Vidas apparatus with Vidas HBs and Vidas HBE/HBET kits (bioMerieux, France) or Autobio kits (AutoBio, China) according to manufacturer's protocol.
# Total RNA was prepared using NucleoSpin RNA Plus (Macherey-Nagel). After DNA digestion with TURBO DNase (Ambion), maximum 1000 ng RNA were reverse-transcribed using High-Capacity RNA-to-cDNA kit (Thermo Fisher Scientific). Quantitative PCR was carried out with primers HDV-F (5′-[…] -3′, SEQ ID NO: 1) and HDV-R (5′-[…] -3′, SEQ ID NO: 2) for quantification of total HDV RNA and HBV-F (5′-[…] -3′, SEQ ID NO: 3) and HBV-R (5′-[…] -3′, SEQ ID NO: 4) for quantification of pregenomic/precore HBV RNA. cDNA was analysed by quantitative PCR (qPCR) using QuantiFast SYBR® Green PCR kit (Qiagen) on LightCycler® 480 instrument (Roche) using a 45 PCR cycles. All assays were performed in triplicate. Relative quantification was determined by normalizing the expression of each gene to S9 housekeeping gene using primers S9-F (5′-[…] -3′, SEQ ID NO: 5) and S9-R (5′-[…] -3′, SEQ ID NO: 6).
# HDV [3] = assay: HDV replication in HBV-infected dHepaRG super-infected with HDV (intracellular HDV RNA, RT-qPCR); type: cell-based, Hepatitis D virus; settings: 7 days treatment, superinfected dHepaRG
# HDV [4] = assay: HDV replication in HBV-infected PHH super-infected with HDV (intracellular HDV RNA, RT-qPCR); type: cell-based, Hepatitis D virus; settings: 7 days treatment, superinfected PHH
# nascent HDV RNAs = assay: Run-On assay of nascent HDV RNAs in HBV/HDV co-infected dHepaRG; type: cell-based, Hepatitis D virus; settings: 10 μM for 4 days, 2 h labelled uridin, coinfected dHepaRG
# Protocol: FIG. 8. Decrease of the levels of nascent HDV RNAs in HBV/HDV co-infected dHepaRG treated with FXRα agonists. dHepaRG were co-infected with HBV (100 vge/cell) and with HDV (10 vge/cell). […] Cells were incubated with labelled uridin or not (mock-EU) for 2 h, washed and harvested. Total intracellular HDV RNAs as well as EU-labelled HDV RNAs (nascent intracellular HDV RNAs) were isolated and quantified by RT-qPCR analyses. As a control, cells were treated with actinomycin D (10 μg/mL, ActD) 20 min before incubation with labelled uridin in order to block transcription of nascent RNAs. Results are the mean+/−SD one experiment performed with three biological replicates.
# Six days post-infection, cells were treated with 10 μM of GW4064 for 4 days before Run-On experiment.
# HDV-infected HepaRG cells were incubated with labelled uridin or not (mock-EU) for 2 h, washed and harvested. Total intracellular HDV RNAs as well as EU-labelled HDV RNAs (nascent intracellular HDV RNAs) were isolated using the Click-iT™ Nascent RNA Capture Kit (Thermofisher Scientific) according to the manufacturer's instruction. As a control, cells were treated with 10 μg/mL of actinomycin D 20 min before incubation with labelled uridin in order to block transcription of nascent RNAs.
# [5] = in vivo; cited from earlier work
# HDV particles = assay: Specific infectivity of secreted HDV particles on naïve Huh7.5-NTCP cells; settings: 6 days post infection
# Protocol: (A) Supernatants of infected dHepaRG cells were collected, concentrated by PEG precipitation and the levels of extracellular HDV RNAs were assessed by qRT-PCR analyses. (B-C) Naïve HuH7.5-^NTCP cells were infected with the different concentrated supernatants with (B) 500 vge/cell or (C) as indicated. Six days later, levels of intracellular HDV RNAs were assessed by RT-qPCR analyses. Results of RT-qPCR are the mean+/−SD of three independent experiments each performed with three biological replicates.
# Finally, naïve Huh7.5-^NTCP cells were infected with the same concentrated supernatants but using two different HDV inoculum, 100 and 500 vge/cell, for each condition.
# (§1) For analysis of HDV virion specific infectivity, supernatants from dHepaRG infected with both HBV and HDV were concentrated using 8% PEG 8000. HDV RNA was quantified by RT-qPCR in concentrates and Huh7.5^NTCP cells were infected using same viral genome equivalents (vge) of concentrated virus for each condition of treatment. Six days post infection, total cellular RNA was extracted and HDV RNA was quantified by RT-qPCR.
# [6] = tested on: HDV antigens (HDAg-L, HDAg-S); settings: superinfected PHH, Western Blot densitometry normalized to B-tubulin
# Protocol: PHH were infected with HBV at a MOI of 100 GE/cell and 4 days later with HDV at a MOI of 10 GE/cell. […] Cells and supernatants were harvested at day 14 post HBV infection for intracellular HDV RNA quantification and lysed for protein extraction and WB analyses. Graphs represent the densitometry analyses of the respective blots and results are presented as ratios of HDAgs normalized to the levels of B-tubulin.
# (§2) Cells were harvested in RIPA lysis buffer (NaCl 150 mM, Tris HCl pH=8.0 50 mM, SDS 0.1%, NP40 1%, Na Deoxycholate 0.5%) containing protease inhibitors (Protein Cocktail Inhibitors from Sigma-Aldrich, NaF 10 mM, Na Orthovanadate 10 mM). Clarified lysates were subjected to 10% SDS-PAGE and Western Blot transfer onto PVDF or nitrocellulose membranes using the TransTurbo Blot apparatus according to the manufacturer (Biorad). Primary antibodies are the HDVAg antibody (kind gift of Dr Alain Kay) and the beta-tubulin antibody (Abcam). Secondary HRP antibodies were purchased from Sigma-Aldrich. HRP signal detection was determined electronically using Ozyme—Syngene PXi Image system and parameters set strictly below the saturation point.
# [7] = tested on: HDV antigens (HDAg-L, HDAg-S); settings: superinfected dHepaRG, Western Blot densitometry normalized to B-tubulin
# Protocol: Differentiated HepaRG cells were infected with HBV at a MOI of 100 GE/cell and 7 days later with HDV at a MOI of 10 GE/cell. […] Cells were harvested at day 17 post HBV infection and lysed for protein extraction and WB analyses. Graphs represent the densitometry analyses of the respective blots and results are presented as ratios of HDAgs normalized to the levels of B-tubulin.
# as §2
# HDV [8] = assay: Secretion of HDV RNA from HBV/HDV coinfected dHepaRG cells (RT-qPCR of concentrated supernatants); settings: 10 μM for 10 days
# Protocol: (A) Supernatants of infected dHepaRG cells were collected, concentrated by PEG precipitation and the levels of extracellular HDV RNAs were assessed by qRT-PCR analyses. […] Results of RT-qPCR are the mean+/−SD of three independent experiments each performed with three biological replicates.
# as §1
smiles,measurement,setting,value
"CC[C@H]1[C@@H](O)[C@@H]2[C@H](CC[C@]3(C)[C@@H]([C@H](C)CCC(=O)O)CC[C@@H]23)[C@@]2(C)CC[C@@H](O)C[C@@H]12 [6-ECDCA, 6-ethyl-cheno-deoxycholic acide]",decrease of total HDV RNA,HDV [1]; 10 μM,around 60%
same,amount of genomic HDV RNA,HDV genomic RNA; 10 μM,decreased
"CC(C)c1onc(-c2c(Cl)cccc2Cl)c1COc1ccc(/C=C/c2cccc(C(=O)O)c2)c(Cl)c1 [GW4064, 3-[2-[2-Chloro-4-[[3-(2,6-dichloro-phenyl)-5-(1-methylethyl)-4-isoxazolyl]methoxy]phenyl]ethenyl] benzoic acid]",decrease of total intracellular HDV RNA,HDV [2],60%
same,anti-HBV activity on amount of intracellular HBV RNAs,HBV,verified
same,anti-HBV activity on secreted HBe antigen,HBV,verified
same,anti-HBV activity on secreted HBs antigen,HBV,verified
same,decrease of total intracellular HDV RNA,HDV [3]; 1 μM,very pronounced
same,decrease of total intracellular HDV RNA,HDV [3]; 10 μM,up to 60%
same,decrease of total intracellular HDV RNA,HDV [4]; 1 μM,very pronounced
same,decrease of total intracellular HDV RNA,HDV [4]; 10 μM,≤ 45%
same,decrease of total HDV RNA,HDV [1]; 10 μM,around 60%
same,synthesis of nascent HDV RNA,nascent HDV RNAs,able to inhibit
same,bioavailability,[5],limited
same,amount of genomic HDV RNA,HDV genomic RNA; 10 μM,decreased
same,intracellular HDV RNA levels with inoculum 100 versus 500 vge/cell,HDV particles; Huh7.5-NTCP infected with supernatants of treated dHepaRG,no significant difference
same,decrease of intracellular HDV RNA in cells infected with supernatants of treated dHepaRG,"HDV particles; producer cells treated 10 μM, Huh7.5-NTCP infected with 500 vge/cell",more than 95%
same,reduction of HDAg-L (large HDV antigen) amount,[6],75%
same,reduction of HDAg-S (small HDV antigen) amount,[6],75%
same,reduction of HDAg-L (large HDV antigen) amount,[7],75%
same,reduction of HDAg-S (small HDV antigen) amount,[7],75%
same,decrease of secreted HDV RNA,HDV [8],65%
"O=C(O)c1cc(F)c2nc(N3[C@@H]4CC[C@H]3C[C@@H](OCc3c(-c5ccccc5OC(F)(F)F)noc3C3CC3)C4)sc2c1 [tropifexor, 2-[(1R,3r,5S)-3-({5-cyclopropyl-3-[2-(trifluoromethoxy)phenyl]-1,2-oxazol-4-yl}methoxy)-8-azabicyclo[3.2.1]octan-8-yl]-4-fluoro-1,3-benzothiazole-6-carboxylic acid]",decrease of total HDV RNA,HDV [1]; 1 μM,around 60%
same,amount of genomic HDV RNA,HDV genomic RNA; 1 μM,decreased
